Common to all, as to set-up: species or system mice
Assay [1] concerns Early (HBC×34) and metastatic (BB3RC31) BC estrogen-dependent patient-derived xenograft tumors. Nature of the assay: 14 day in vivo window treatment of ER+ PDX tumors: tumor growth, Ki67, ER, PR. The following applies: for proliferation marker Ki67 / tumor growth: 14 days, tamoxifen 10 mg/kg/day oral, fulvestrant 200 mg/kg/week s.c., RO4929097 3 mg/kg/day oral; for ER and PR protein expression levels: PDX tumors, 14 days in vivo, immunohistochemistry. The procedure: Early (HBC×34) and metastatic (BB3RC31) BC estrogen-dependent PDXs were administered with 8 ug/ml of 17-beta estradiol in drinking water at all times and were treated with drugs when tumors reached 200-300 mm^3. Experiments were performed using PDX tumors between passages 5 and 8. Animal weight and tumor size was measured bi-dimensionally using callipers twice a week. The HBC×34 model was kindly provided by Dr Elisabetta Marangoni from Institute Curie, Paris (Cottu et al., 2012).
(§1) Tamoxifen citrate (Sigma, T9262, 10 mg/kg/day) and RO4929097 (Cellagen Technology, 3 mg/kg/day) were administered by oral gavage (0.1 ml/dose) on a five day from seven basis (weekends excluded) for fourteen days. Tamoxifen citrate and RO4929097 were prepared in 1% carboxymethylcellulose (Sigma, C9481) dissolved in distilled water. Fulvestrant (kindly provided by Astrazeneca, 200 mg/kg/week) was administered by subcutaneous injection (0.1 ml/dose) on a weekly basis for fourteen days. The HBC×22 and HBC×34 tamoxifen-resistant PDXs have been established by our collaborators in the Curie Institute (Cottu el al, 2014) and were treated for fourteen days in the presence or absence of the gamma-secretase inhibitor RO4929097 (10 mg/kg/day, oral gavage). Xenografts were collected in ice cold DMEM media for live cell assays, histological analysis and RNA and protein extraction. Patient-derived xenograft single cell suspension was obtained using a collagenase-hyaluronidase mixture for digestion (Stem Cell Technologies).
Tissue microarrays (TMAs) were constructed from all formalin fixed and paraffin embedded tissue. 3×1 mm cores were taken per tissue block, and TMAs were cut into 3 μm thick sections and analysed by immunohistochemistry. Antibodies utilised were anti-ERα (Thermo, SP1), anti-PgR (Dako, M3569), anti-Ki67 (Dako, M7240), anti-HER2 (Vector Laboratories, VP-C380), anti-Hes1 (Abcam, ab108937) and anti-ALDH1 (BD Biosciences, 611195). Antigen retrieval was performed either using Target Retrieval Solution pH9 (Dako S2367, for ER, PR, Ki67 and ALDH1), Target Retrieval Solution pH6 (Dako S1699, for Hes1) or in 10 mM Citrate buffer (for HER2) in a […] water bath for 25 mins. All antibodies were detected using Dako EnVision Detection System Peroxidase/DAB, Rabbit/Mouse (Dako, K5007) and sections were counterstained with haematoxylin. Staining was quantified using Definiens Tissue Studio software. The percentage of positive epithelial cells was scored on 3 cores per tissue sample. For ER immunocytochemistry, approximately 50.000 cells were FACS sorted and then cytospun for 5 min at 80 G on poly-lysine coated slides. Cells were fixed with 4% paraformaldehyde (5 min), permeabilised with acetone (4 min) and methanol (2 min), and then blocked for 10 min with Peroxidase Blocking Reagent (Dako, S2001) and further 10 min with 3% goat serum before incubation with primary antibody. ER was then detected as described above for immunohistochemistry.

The subject of assay [2] is Notch target genes HEY1 and HES1. Nature of the assay: HEY1 and HES1 expression by real-time PCR in PDX tumors treated in vivo. The following applies: PDX tumors treated in vivo 2 weeks. The procedure:
as §1, with “Xenografts were collected in ice cold DMEM media for live cell assays, histological analysis and RNA and protein extraction. Patient-derived xenograft single cell suspension was obtained using a collagenase-hyaluronidase mixture for digestion (Stem Cell Technologies).” left out
Total RNA was extracted using the RNeasy Plus Mini Kit (QIAGEN, 74104) and the concentration and purity determined using an ND-1000 spectrophotometer (NanoDrop Technologies). […] Quantitative real-time PCR reactions were set up in triplicate in 384-well plates and performed on the 7900 PCR machine (Applied Biosystems) using TaqMan® Universal PCR Master Mix (Applied Biosystems) and probes from Universal Probe Library (Roche). […] The expression levels were calculated using the ΔΔCt method and normalised to the housekeeping genes 36B4 and GAPDH. […]
A general note: Quantitative PCR measures a nucleic acid by following its amplification.

For the next assay, the system named is MCF-7 cells. Nature of the assay: In vivo tumor initiation of pre-treated MCF-7 cells (limiting dilution, ELDA). The following applies: for in vivo tumor initiation capacity: 6 days in vitro pre-treatment, 100,000 MCF-7 cells, Nude mice, day 90; for enrichment in tumor-initiating cell frequency (ELDA): MCF-7 pre-treated six days, limiting dilution in NSG mice, day 60. The procedure:
To determine tumor initiation capacity of MCF-7 cells or metastatic (BB3RC31) PDX cells treated in vitro or in vivo, respectively, Nude or NSG mice were injected subcutaneously with cells in mammosphere media mixed 1:1 with Matrigel. 8 μg/ml of 17-beta estradiol was administered in drinking water or 90-day slow release estrogen pellets were implanted sub-cutaneously into mice two days before cell injection (0.72 mg, Innovative Research of America). […] Positive tumor growth was assessed at day 60 or 90 after cell injection by determining the mice bearing a tumor greater than 100 mm^3 and is represented as mice positive for growth/mice tested (n=4 per condition in all experiments). p values were calculated with Chi-squared test.

Assay [3] relates to metastatic (BB3RC31) PDX cells. Nature of the assay: Secondary tumor formation of cells from PDX tumors treated in vivo. The following applies: 90 days post-implantation; for tumor-initiating capacity in secondary mouse hosts: cells from PDX tumors treated in vivo. The procedure: as §1
To determine tumor initiation capacity of MCF-7 cells or metastatic (BB3RC31) PDX cells treated in vitro or in vivo, respectively, Nude or NSG mice were injected subcutaneously with cells in mammosphere media mixed 1:1 with Matrigel. 8 μg/ml of 17-beta estradiol was administered in drinking water or 90-day slow release estrogen pellets were implanted sub-cutaneously into mice two days before cell injection (0.72 mg, Innovative Research of America). Serial limiting dilution implantation of MCF-7 cells (10.000, 1.000, 100, 10 cells) and the Extreme Limiting Dilution Analysis (ELDA) software (The Walter and Eliza Hall Institute of Medical Research) were used to perform calculations (95% CI) of tumor initiation. Positive tumor growth was assessed at day 60 or 90 after cell injection by determining the mice bearing a tumor greater than 100 mm^3 and is represented as mice positive for growth/mice tested (n=4 per condition in all experiments). p values were calculated with Chi-squared test.

Entries after “also recorded” stand apart in the source; their conditions may differ.

Regarding `CC/C(=C(\c1ccccc1)c1ccc(OCCN(C)C)cc1)c1ccccc1` [tamoxifen, (Z)-2-[4-(1,2-diphenylbut-1-enyl)phenoxy]-N,N-dimethylethanamine], in assay [1], the “proliferation marker Ki67” value is given as “decrease; also recorded: reduced” and the tumor growth result is on record as “reduced”. The PR expression result in assay [1] (HBC×34 (early BC) PDX) is recorded as “down-regulated”. The “HEY1 and HES1 expression” value in assay [2] is given as “increased”. Moreover, in the assay with MCF-7 cells, the “in vivo tumor initiation capacity” value is on record as “enriched” and the “enrichment in tumor-initiating cell frequency (ELDA)” value stood at 11 fold. In assay [3], the “tumor-initiating capacity in secondary mouse hosts” value (“tumor-initiating capacity” for short) was “stimulation of tumorigenicity”.

Consider `CC(C)(C(=O)NCC(F)(F)C(F)(F)F)C(=O)N[C@@H]1C(=O)Nc2ccccc2-c2ccccc21` [RO4929097], for which, in assay [1], the “proliferation marker Ki67” value is listed as “no impact”; the tumor growth entry was “no impact”; the “ER and PR protein expression levels” value is listed as “not modified”. Further, the “enrichment in tumor-initiating cell frequency following tamoxifen or fulvestrant pre-treatment” value with MCF-7 cells (co-treatment with RO4929097 10 μM) is listed as “reversed”. Further, the “tumor-initiating capacity” value in assay [3] is given as “significantly reduced”. Moreover, the “stimulation of tumorigenicity following in vivo tamoxifen and fulvestrant treatment” value in assay [3] (combination with RO4929097) was “completely reversed”.

`C[C@]12CC[C@@H]3c4ccc(O)cc4C[C@@H](CCCCCCCCC[S+]([O-])CCCC(F)(F)C(F)(F)F)[C@H]3[C@@H]1CC[C@@H]2O` (some centres unmarked) [fulvestrant]: in assay [1], the “proliferation marker Ki67” value was “decrease; also recorded: reduced”; the tumor growth entry is recorded as “reduced”; the “ER and PR protein expression levels” value is “reduced”. For the same compound, in assay [2], the “HEY1 and HES1 expression” value is “increased”. Besides, in the assay on MCF-7 cells, the “in vivo tumor initiation capacity” value is given as “enriched” and the “enrichment in tumor-initiating cell frequency (ELDA)” value is 11 fold. In addition, the “tumor-initiating capacity” value in assay [3] is “stimulation of tumorigenicity”.

These data come from patent publication US20160376659A1, “Breast Cancer Biomarker” (The University of Manchester, priority 2015, published 2016).
